Eight molecules from US20250186319A1, “ANAPLEROTIC COMPOSITIONS AND USES THEREOF” (EXCELLA BIOSCIENTIFIC LTD, priority 2021, published 2025) can be followed below.

In brackets after ≈: the same amount, converted by molar mass. Like-named read-outs stand apart in the source and are kept apart here.

One assay deals with P. acnes. The assay can be described thus: MIC/MBC against P. acnes by microdilution method. To be noted: for MBC: TriAza batches and their soaps; for MIC: Cutibacterium acnes. It counts as cell-based. The text has this:
TriAza was designed as a pro-drug of azelaic acid, a known antibacterial agent, for the treatment of skin disorders associated with pathogenic propagation of bacteria. For example, the development of Acne vulgaris is tightly associated with extensive accumulation of P. acnes in the sebaceous gland, a milieu of the disease. To determine the antibacterial activity of TriAza against P. acnes, we tested the minimal bactericidal concentration (MBC) of TriAza. The effect of TriAza was compared to the MBC of azelaic acid and benzoyl peroxide (BPO), two main competitors used in the treatment of acne.
To compare the antimicrobial activities of various batches of TriAza we determined MIC of number of batches that were prepared with non-principal modifications. Selected batches were labeled as TriAza −3, TriAza −6, TriAza −7 and TriAza −19 and supplied to the growth medium of P. acnes. A, minimal inhibitory concentration of the batches was monitored and compared to each other. […] For further analysis, batch TriAza −19 was chosen as a batch containing the minimal amount of pelargonic acid.
Since TriAza is designed for marketing as a soap, we decided to define an antibacterial activity of its soap. […] It should be stressed that despite the decreased activity of TriAza soap it is still higher than that of azelaic acid (Table 1 and 2).
Example 12: Microbiome balance effect: Selection of methods for QC-quality control-Functional Potency. Testing minimal inhibitory concentration (MIC) to P. acnes was executed by microdilution method. TriAza based biocontrol, microbial preservation. P. acnes after double passage on Chocolate plates (Novamed) were grown bacteria in anaerobic conditions at 37° C. for 1-2 days. The bacteria were Gram stained and the proper morphology of the bacteria was assured. Then, bacteria were resuspended in Thioglycolate medium (HyLabs) at concentration of 0.02 O.D.600. Meanwhile, ELISA plates containing at the first raw 200 μl of undiluted tested material were prepared. The rest wells were filled with 100 μl of Thioglycolate medium and 11 serial […] by transferring 100 μl of undiluted material was performed. Once the ELISA plate was ready, 100 μl of prepared bacterial culture was added. Bacteria alone and medium w/o bacteria were used as standard controls. The plates were incubated in anaerobic conditions at 37° C. for 2 days. Minimal inhibitory concentration was determined visually and spectrophotometrically, while minimal bactericidal concentration was determined after plating of the bacteria on solid medium (Chocolate plates). On the plates bacteria were incubated in anaerobic conditions at 37° C. for 2 days and the number of appearing colonies were counted manually. Specification for positive functional potency for batch acceptance for the TriAza batches tested are selected in range of antimicrobial activity-MIC between 0,25-1 mM.
P. acnes after double passage on Chocolate plates (Novamed) were grown in anaerobic conditions at 37° C. for 1-2 days. The bacteria were Gram stained and the proper morphology of the bacteria was assured. Then, bacteria were resuspend in Thioglycolate medium
(HyLabs) at concentration of 0.02 O.D.600. Meanwhile, ELISA plates containing at the first raw undiluted tested material were prepared. The rest wells were filled with 100 μl of Thioglycolate medium and 11 serial ½ dilutions by transferring 100 ul of undiluted material was performed. Once the ELISA plate was ready, 100 ul of prepared bacterial culture was added. Bacteria alone and medium w/o bacteria were used as standard controls. The plates were incubated in anaerobic conditions at 37° C. for 2 days. Minimal inhibitory concentration was determined visually and spectrophotometrically, while minimal bactericidal concentration was determined after plating of the bacteria on solid medium (Chocolate plates). […]
On the technique in general: Broth dilution looks for growth in wells or tubes with falling amounts of substance.

The test system of the next assay is S. aureus. Briefly: S. aureus spiked contamination screen of natural preservatives in chocolate spread. It is filed as cell-based. Details: unit not given here. The text has this: In addition, even MCT, and derivatives are screened as useful natural preservatives of the composition, GML-glycerol monolaurate is selected as an adjunctive multifunctional natural preservative to MOCL based composition.

The next assay relates to phospholipase A2. The assay can be described thus: Specificity: hydrolysis of TriAza by phospholipase A2. It counts as biochemical. To be noted: equally active enzyme amounts, fixed TriAza concentration. The text has this: (§1) Pure pro-drug activity of designed molecules implies their high specificity towards the target enzyme. TriAza represents the glycerol ester of a specific fatty acid that might be recognized by a mammalian esterase or other triglyceride-utilizing lipase. To establish specificity of bacterial lipase to TriAza, the lipase activity from P. cepacia to that of mammalian esterase and phospholipase A2 were compared. […] The extents of enzyme activities were registered according to the level of generation of azelaic acid.

Assay [1] deals with P. acnes-associated lipase. The assay can be described thus: P. acnes-associated lipase activity in live culture, release of azelaic acid (TLC). To be noted: day 1 and day 5. It counts as cell-based. How it is done:
The activity of C. acnes-associated and P. acnes-associated lipase was tested in the presence of triolein (a trigger of lipase activity). Bacteria was grown for 4 days in liquid medium. P. acnes after double passage on Chocolate plates (Novamed) were grown bacteria in anaerobic conditions at 37° C. for 1-2 days. The bacteria were Gram stained, and the proper morphology of the bacteria was assured. Then, 1 O.D. 600 bacteria were resuspended in 1 ml of Thioglycolate medium (HyLabs) containing 50 μl triolein and grown in anaerobic conditions at 37° C. for 4 days. Following this incubation, 100 μl of emulsified substrate was added to the culture that was further maintained at 37° C. for overnight. Afterwards, the supernatant was separated from the bacteria by 1 min centrifugation at 10000 rpm and subjected to lipid extraction using clorophorm: methanol (2:1). The lipids after nitrogen evaporation and resuspension in clorophorm: methanol (2:1) were separated on silica TLC plates in a development solution of clorophorm: methanol: water (65:25:4), and visualized with BromCresol Green (Sigma).

Another assay concerns mammalian esterase. The assay can be described thus: Specificity: hydrolysis of TriAza by esterase. To be noted: equally active enzyme amounts, fixed TriAza concentration. It is filed as biochemical.
Excerpt: as §1

The target in another assay is T1, lipase from P. cepacia (Burkholderia cepacia, UniProt P22088).
T1 construct: purchased
T1 sequence (P22088 45-364): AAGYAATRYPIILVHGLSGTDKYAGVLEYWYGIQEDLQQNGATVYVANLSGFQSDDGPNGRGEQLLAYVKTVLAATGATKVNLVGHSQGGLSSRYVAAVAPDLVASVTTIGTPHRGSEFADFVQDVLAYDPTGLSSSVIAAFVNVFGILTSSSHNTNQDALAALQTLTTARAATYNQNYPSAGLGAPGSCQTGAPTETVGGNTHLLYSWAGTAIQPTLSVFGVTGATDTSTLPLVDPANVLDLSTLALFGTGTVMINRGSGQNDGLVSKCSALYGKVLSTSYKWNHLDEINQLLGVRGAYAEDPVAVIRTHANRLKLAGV
The assay can be described thus: Bacterial lipase hydrolysis of TriAza, azelaic acid production by TLC. It counts as biochemical. To be noted: increasing enzyme amounts, 37° C. On the procedure: To determine the affinity of a bacterial lipase to the active ingredient according to the embodiments of the invention, the ability of the lipase to utilize TriAza as a substrate was tested. For this purpose, the commercially available lipase from P. cepacian was used. Increasing amounts of the enzyme were mixed with a fixed concentration of the substrate, and incubated for a few hours at 37° C. The enzymatic activity was monitored by TLC, by registering the production of azelaic acid.
as §1

Assay [2] in a line: Subjective evaluation of skin aged appearance in volunteers. It is filed as in vivo, human. The conditions noted are these: scale −3 to 3; three volunteers; after month of use. How it is done:
Method of subjective qualitative evaluation of skin whitening and smoothening at the test site and improvement in fine lines is evaluated subjectively by the investigator and/or by the subjects in accordance with the following scoring pattern:−3=marked deterioration;−2=moderate, visibly uneven deterioration;−1=slight deterioration; 0=no perceptible change or improvement; 1=slight change or improvement; 2=moderate change or improvement (whitening; perceptible and visible change, with less than 50% lightening of skin color); 3=marked or improvement remarkable change or improvement (whitening; very visible change with even and uniform skin whitening covering more than 80% of the contact area). Three study volunteers used TriAza for reduction of skin “aged appearance”-all three after month of use reported 2-3 scale of appearance improvement.

Assay [3] has as its system Staphylococcus aureus (S. aureus). Briefly: MIC/MBC against S. aureus. It counts as cell-based. The text has this:
(§2) For this purpose, we selected a few major skin pathogens and tested their sensitivity to TriAza. We chose Staphylococcus aureus (S. aureus) and Candida albicans (C. albicans), representing bacterial and fungal genera, respectively. Both organisms' express lipase. The bacteria and fungi were exposed to various concentrations of TriAza −19 and its sodium salt, and both the MICs and MBCs of the agents were statistically determined. […] The slight difference in MICs of TriAza against the tested organisms can stem from the difference in their lipase activity.

Assay [4] deals with Candida albicans (C. albicans). The assay can be described thus: MIC/MBC against C. albicans. It counts as cell-based.
Excerpt: as §2

[5] abbreviates: TriAza value is batch #5, MIC of L-PABS equals its MBC, read-out: MIC.

`O=C(O)CCCCCCCC(=O)OCC(COC(=O)CCCCCCCC(=O)O)OC(=O)CCCCCCCC(=O)O` [TriAza-3]: in the assay on P. acnes, the MBC amounted to 1 mg/mL (≈ 1.66 mM).
`CCCCCCCCC(=O)OCC(COC(=O)CCCCCCCC)OC(=O)CCCCCCCC` [tripelargonin] yielded an MIC with S. aureus of 23.
With `O=C(O)CCCCCCCC(=O)OCC(COC(=O)CCCCCCCC(=O)O)OC(=O)CCCCCCCC(=O)O` [TriAza-6], the MBC with P. acnes was 2.8 mg/mL (≈ 4.65 mM).
As to `O=C(OOC(=O)c1ccccc1)c1ccccc1` [BPO, benzoyl peroxide, reference compound], the MIC with P. acnes (setting [5]) was 500 µg/mL.
On the same count and under the same terms, the result for `O=C(O)CCCCCCCC(=O)O` [Azelaic acid, reference compound] reads 3750 µg/mL.
`O=C(O)CCCCCCCC(=O)OCC(COC(=O)CCCCCCCC(=O)O)OC(=O)CCCCCCCC(=O)O` [TriAza-7] displayed an MBC against P. acnes of 2 mg/mL (≈ 3.32 mM).
For the molecule `O=C(O)CCCCCCCC(=O)OCC(COC(=O)CCCCCCCC(=O)O)OC(=O)CCCCCCCC(=O)O` [TriAza, Glycerol triazelate], in the assay on phospholipase A2, the “generation of azelaic acid by phospholipase A2” value is “neither esterase nor phospholipase A2 could produce azelaic acid”. In assay [1], the “time-dependent release of azelaic acid” value is recorded as “maximum lipase hydrolysis on day 5”. Besides, in the assay on mammalian esterase, the “generation of azelaic acid by esterase” value is reported as “neither esterase nor phospholipase A2 could produce azelaic acid”. The “utilization as substrate, accumulation of azelaic acid” value at lipase from P. cepacia is “could be utilized as a substrate for bacterial lipase activity”. Further, in assay [2], the appearance improvement score is reported as 2-3. For the same molecule, the MIC is 1950 µg/mL with P. acnes (setting [5]) and 1000 µM in the assay with P. acnes (batch VA4-1, with surfactant or emulsifier, read-out: MIC bacteriostatic activity, concentration sufficient to stop growth). The “activity of TriAza relative to Azelaic acid” value with P. acnes (stronger than Azelaic acid) came to 2 fold.
As for `O=C(O)CCCCCCCC(=O)OCC(COC(=O)CCCCCCCC(=O)O)OC(=O)CCCCCCCC(=O)O` [TriAza-19], the results for the MBC (in assay [3]; in assay [4]; against P. acnes) were 10000 µg/mL (≈ 16.6 mM), 24 mg/mL (≈ 39.8 mM) and 1 mg/mL (≈ 1.66 mM), respectively. The values for the MIC in [3] and in assay [4] were 5000 µg/mL (≈ 8.3 mM) and 20 mg/mL (≈ 33.2 mM), respectively.
